Test system: 229E human corona virus (hCoV)
Assay: 229E live virus assay (CPE, ATPlite readout in MRC-5 cells)
Format: cell-based, hCoV-229E
Details: Human coronavirus 229E, MRC5, hCoV-229E live virus, MOI 0.05, ATPlite readout, run in duplicate

| SMILES | EC50 |
| --- | --- |
| CCN(C(=O)OCc1ccccc1)[C@@H](CC(C)C)C(=O)N1C[C@]2(C[C@H]1C#N)C(=O)Nc1ccccc12 [Compound 90] | 100 to 1000 nM |
| CC(C)C[C@H](NC(=O)OCc1ccccc1)C(=O)N1C[C@]2(C[C@H]1C#N)C(=O)Nc1ccccc12 [Example 1] | 100 to 1000 nM |
| N#C[C@@H]1C[C@@]2(CN1C(=O)[C@H](CC1CCC1)NC(=O)OCc1ccccc1)C(=O)Nc1ccccc12 [Example 2] | 100 to 1000 nM |
| CC(C)(C)[C@H](NC(=O)OCc1ccccc1)C(=O)N1C[C@]2(C[C@H]1C#N)C(=O)Nc1ccccc12 [Example 3] | > 1000 nM |
| N#C[C@@H]1C[C@@]2(CN1C(=O)[C@H](CC1CC1)NC(=O)OCc1ccccc1)C(=O)Nc1ccccc12 [Example 4] | 100 to 1000 nM |
| CC(C)(C)C[C@H](NC(=O)OCc1ccccc1)C(=O)N1C[C@]2(C[C@H]1C#N)C(=O)Nc1ccccc12 [Example 5] | 100 to 1000 nM |
| COc1cccc2[nH]c(C(=O)N[C@@H](CC(C)C)C(=O)N3C[C@]4(C[C@H]3C#N)C(=O)Nc3ccccc34)cc12 [Example 11] | < 100 nM |
| COc1cccc2[nH]c(C(=O)N[C@H](CC(C)C)C(=O)N3C[C@]4(C[C@H]3C#N)C(=O)Nc3ccccc34)cc12 [Example 12] | 100 to 1000 nM |
| COc1cccc2[nH]c(C(=O)N[C@@H](CC3CCCCC3)C(=O)N3C[C@]4(C[C@H]3C#N)C(=O)Nc3ccccc34)cc12 [Example 13] | < 100 nM |
| COc1cccc2[nH]c(C(=O)N[C@H](CC3CCCCC3)C(=O)N3C[C@]4(C[C@H]3C#N)C(=O)Nc3ccccc34)cc12 [Example 14] | < 100 nM |
| COc1cccc2[nH]c(C(=O)N[C@@H](CC(C)(C)C)C(=O)N3C[C@]4(C[C@H]3C#N)C(=O)Nc3ccccc34)cc12 [Example 15] | < 100 nM |
| COc1cccc2[nH]c(C(=O)N[C@H](CC(C)(C)C)C(=O)N3C[C@]4(C[C@H]3C#N)C(=O)Nc3ccccc34)cc12 [Example 16] | 100 to 1000 nM |
| COc1cccc2[nH]c(C(=O)N[C@@H](CC3CCC3)C(=O)N3C[C@]4(C[C@H]3C#N)C(=O)Nc3ccccc34)cc12 [Example 17] | < 100 nM |
| CC(C)(C)[C@H](NC(=O)c1cc2c(F)cccc2[nH]1)C(=O)N1C[C@]2(C[C@H]1C#N)C(=O)Nc1ccccc12 [Example 18] | 100 to 1000 nM |
| COc1cccc2[nH]c(C(=O)N[C@@H](CC3CC3)C(=O)N3C[C@]4(C[C@H]3C#N)C(=O)Nc3ccccc34)cc12 [Example 19] | < 100 nM |
| CC(C)(C)C[C@H](NC(=O)c1cc2c(F)c(F)ccc2[nH]1)C(=O)N1C[C@]2(C[C@H]1C#N)C(=O)Nc1ccccc12 [Example 20] | < 100 nM |
| CC(C)(C)C[C@H](NC(=O)c1cc2c(F)cccc2[nH]1)C(=O)N1C[C@]2(C[C@H]1C#N)C(=O)Nc1ccccc12 [Example 21] | < 100 nM |
| COc1cccc2[nH]c(C(=O)NC(CC(C)C)C(=O)N3CC4(CC3C=O)C(=O)Nc3ccccc34)cc12 (stereo not shown) [Example 23] | < 100 nM |
| CC(C)C[C@@H](C(=O)N1C[C@]2(C[C@H]1C=O)C(=O)Nc1ccccc12)N(C)C(=O)OCc1ccccc1 [Example 24] | < 100 nM |
| CC(C)C[C@H](NC(=O)c1cc2c(F)cccc2[nH]1)C(=O)N1C[C@]2(C[C@H]1C=O)C(=O)Nc1ccccc12 [Example 25] | < 100 nM |
| COc1cc(C#N)cc2[nH]c(C(=O)N[C@@H](CC(C)C)C(=O)N3C[C@]4(C[C@H]3C#N)C(=O)Nc3ccccc34)cc12 [Example 26] | < 100 nM |

| SMILES | EC50 |
| --- | --- |
| CC(C)C[C@H](NC(=O)c1cc2c(F)cccc2[nH]1)C(=O)N1C[C@]2(C[C@H]1C#N)C(=O)Nc1ccccc12 [Example 27] | < 100 nM |
| CC(C)C[C@H](NC(=O)c1cc2c(F)cccc2[nH]1)C(=O)N1C[C@]2(C[C@H]1C#N)C(=O)Nc1c(F)cccc12 [Example 28] | < 100 nM |
| COc1cccc2[nH]c(C(=O)N[C@@H](CC(C)C)C(=O)N3C[C@]4(C[C@H]3C(O)S(=O)(=O)O)C(=O)Nc3ccccc34)cc12 (stereo partly shown) [Example 29] | < 100 nM |
| CC(C)C[C@@H](C(=O)N1C[C@]2(C[C@H]1C(O)S(=O)(=O)O)C(=O)Nc1ccccc12)N(C)C(=O)c1cc2c(F)cccc2[nH]1 (stereo partly shown) [Example 30] | < 100 nM |
| COc1cccc2[nH]c(C(=O)N[C@@H](CC(C)C)C(=O)N3C[C@]4(C[C@H]3C(=O)C(=O)NC3CC3)C(=O)Nc3ccccc34)cc12 [Example 31] | 100 to 1000 nM |
| COc1cccc2[nH]c(C(=O)N[C@@H](CC(C)C)C(=O)N3C[C@]4(C[C@H]3C(=O)C(=O)NCc3ccccc3)C(=O)Nc3ccccc34)cc12 [Example 32] | 100 to 1000 nM |
| COc1cccc2[nH]c(C(=O)N[C@@H](CC(C)C)C(=O)N3C[C@]4(C[C@H]3C(=O)C(=O)NC3CCCCC3)C(=O)Nc3ccccc34)cc12 [Example 33] | > 1000 nM |
| COc1cccc2[nH]c(C(=O)N(C)[C@@H](CC(C)C)C(=O)N3C[C@]4(C[C@H]3C(=O)C(=O)NC3CCCCC3)C(=O)Nc3ccccc34)cc12 [Example 34] | > 1000 nM |
| CC(C)C[C@@H](C(=O)N1C[C@]2(C[C@H]1C(=O)C(=O)NC1CCCCC1)C(=O)Nc1ccccc12)N(C)C(=O)c1cc2c(F)cccc2[nH]1 [Example 35] | > 1000 nM |
| CC(C)C[C@@H](C(=O)N1C[C@]2(C[C@H]1C(=O)C(=O)NC1CC1)C(=O)Nc1ccccc12)N(C)C(=O)c1cc2c(F)cccc2[nH]1 [Example 36] | 100 to 1000 nM |
| COc1cccc2[nH]c(C(=O)N[C@@H](CC(C)C)C(=O)N3C[C@]4(C[C@H]3C(=O)O)C(=O)Nc3ccccc34)cc12 [Example 37] | 100 to 1000 nM |
| CC(C)C[C@@H](C(=O)N1C[C@]2(C[C@H]1C#N)C(=O)Nc1ccccc12)N(C)C(=O)OCc1ccccc1 [Example 39] | > 1000 nM |
| CN(C(=O)OCc1ccccc1)[C@@H](CC(C)(C)C)C(=O)N1C[C@]2(C[C@H]1C#N)C(=O)Nc1ccccc12 [Example 40] | 100 to 1000 nM |
| CN(C(=O)OCc1ccccc1)[C@@H](Cc1ccccc1)C(=O)N1C[C@]2(C[C@H]1C#N)C(=O)Nc1ccccc12 [Example 41] | > 1000 nM |
| COc1cccc2[nH]c(C(=O)N(C)[C@@H](CC(C)C)C(=O)N3C[C@]4(C[C@H]3C#N)C(=O)Nc3ccccc34)cc12 [Example 42] | < 100 nM |
| CC(C)C[C@@H](C(=O)N1C[C@]2(C[C@H]1C#N)C(=O)Nc1ccccc12)N(C)C(=O)c1sc2cc(F)ccc2c1Cl [Example 43] | < 100 nM |
| CC(C)C[C@@H](C(=O)N1C[C@]2(C[C@H]1C#N)C(=O)Nc1ccccc12)N(C)C(=O)c1cc2c(F)cccc2[nH]1 [Example 44] | < 100 nM |
| CC(C)C[C@@H](C(=O)N1C[C@]2(C[C@H]1C#N)C(=O)Nc1ccccc12)N(C)C(=O)c1cc2c(C3CC3)cccc2[nH]1 [Example 45] | < 100 nM |
| CC(C)C[C@@H](C(=O)N1C[C@]2(C[C@H]1C#N)C(=O)Nc1ccccc12)N(C)C(=O)c1cc2c(F)cc(F)cc2[nH]1 [Example 46] | < 100 nM |
| Cc1c(C(=O)N(C)[C@@H](CC(C)C)C(=O)N2C[C@]3(C[C@H]2C#N)C(=O)Nc2ccccc23)[nH]c2cc(F)cc(F)c12 [Example 47] | 100 to 1000 nM |
| CC(C)C[C@@H](C(=O)N1C[C@]2(C[C@H]1C#N)C(=O)Nc1ccccc12)N(C)C(=O)c1[nH]c2ccccc2c1-c1ccccc1 [Example 48] | 100 to 1000 nM |

| SMILES | EC50 |
| --- | --- |
| CC(C)C[C@@H](C(=O)N1C[C@]2(C[C@H]1C#N)C(=O)Nc1ccccc12)N(C)C(=O)c1cc2c(OC(F)(F)F)cccc2[nH]1 [Example 49] | < 100 nM |
| CC(C)C[C@@H](C(=O)N1C[C@]2(C[C@H]1C#N)C(=O)Nc1ccccc12)N(C)C(=O)c1cc2ccc(F)cc2[nH]1 [Example 50] | < 100 nM |
| CC(C)C[C@@H](C(=O)N1C[C@]2(C[C@H]1C#N)C(=O)Nc1ccccc12)N(C)C(=O)c1cc2c(OC(F)F)cccc2[nH]1 [Example 51] | < 100 nM |
| CC(C)C[C@@H](C(=O)N1C[C@]2(C[C@H]1C#N)C(=O)Nc1ccccc12)N(C)C(=O)c1cc2c(F)cc(F)c(F)c2[nH]1 [Example 52] | < 100 nM |
| COc1ccc(Cl)c(C(=O)N(C)[C@@H](CC(C)C)C(=O)N2C[C@]3(C[C@H]2C#N)C(=O)Nc2ccccc23)c1 [Example 58] | 100 to 1000 nM |
| CC(C)C[C@@H](C(=O)N1C[C@]2(C[C@H]1C#N)C(=O)Nc1ccccc12)N(C)C(=O)c1ncccc1Cl [Example 59] | > 1000 nM |
| CC(C)C[C@@H](C(=O)N1C[C@]2(C[C@H]1C#N)C(=O)Nc1ccccc12)N(C)C(=O)c1cncc(C#N)c1 [Example 60] | 100 to 1000 nM |
| CC(C)C[C@@H](C(=O)N1C[C@]2(C[C@H]1C#N)C(=O)Nc1ccccc12)N(C)C(=O)c1ccc(F)cc1Cl [Example 61] | > 1000 nM |
| CC(C)C[C@@H](C(=O)N1C[C@]2(C[C@H]1C#N)C(=O)Nc1ccccc12)N(C)C(=O)c1cc(F)ccc1Cl [Example 62] | > 1000 nM |
| CC(C)C[C@@H](C(=O)N1C[C@]2(C[C@H]1C#N)C(=O)Nc1ccccc12)N(C)C(=O)c1ccc(F)c(Cl)c1 [Example 63] | > 1000 nM |
| CC(C)C[C@@H](C(=O)N1C[C@]2(C[C@H]1C#N)C(=O)Nc1ccccc12)N(C)C(=O)c1c(Cl)cccc1Cl [Example 64] | > 1000 nM |
| CC(C)C[C@@H](C(=O)N1C[C@]2(C[C@H]1C#N)C(=O)Nc1ccccc12)N(C)C(=O)c1cc2c(Cl)cccc2[nH]1 [Example 65] | < 100 nM |
| CC(C)C[C@@H](C(=O)N1C[C@]2(C[C@H]1C#N)C(=O)Nc1ccccc12)N(C)C(=O)c1cc2c(Br)ccc(Cl)c2[nH]1 [Example 66] | < 100 nM |
| CC(C)C[C@@H](C(=O)N1C[C@]2(C[C@H]1C#N)C(=O)Nc1ccccc12)N(C)C(=O)c1cc2c(OC3CC3)cccc2[nH]1 [Example 82] | < 100 nM |
| COc1cccc2[nH]c(C(=O)N(C)[C@@H](CC(C)(C)C)C(=O)N3C[C@]4(C[C@H]3C#N)C(=O)Nc3ccccc34)cc12 [Example 85] | < 100 nM |
| CN(C(=O)c1cc2c(F)c(F)ccc2[nH]1)[C@@H](CC(C)(C)C)C(=O)N1C[C@]2(C[C@H]1C#N)C(=O)Nc1ccccc12 [Example 86] | < 100 nM |
| CN(C(=O)c1cc2c(F)cccc2[nH]1)[C@@H](CC(C)(C)C)C(=O)N1C[C@]2(C[C@H]1C#N)C(=O)Nc1ccccc12 [Example 87] | < 100 nM |
| CN(C(=O)c1cc2c(F)cc(F)cc2[nH]1)[C@@H](CC(C)(C)C)C(=O)N1C[C@]2(C[C@H]1C#N)C(=O)Nc1ccccc12 [Example 88] | < 100 nM |
| CN(C(=O)OCc1ccccc1)[C@@H](CC1CCC1)C(=O)N1C[C@]2(C[C@H]1C#N)C(=O)Nc1ccccc12 [Example 89] | 100 to 1000 nM |
